Reference: US11370798B2 (Vertex Pharmaceuticals Incorporated, priority 2012, dated 2022)

Tested on: HCT116 colorectal cancer cells
Experiment: Cisplatin sensitization assay (96 h cell viability MTS);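 note: Test-compound concentration that lowers the Cisplatin IC50 by a set fold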
Type: cell-based
Conditions: compound and Cisplatin added simultaneously, Cisplatin sensitization value
Summary of the method: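 Compound and cisplatin added together as a full matrix of 2-fold serial dilutions from a top final concentration of 10 μM; cells incubated 96 h at 37° C, 5% CO2. Viability then read by MTS after 1 h further incubation; sensitization value reported in μM bins.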

SMILES	Cisplatin Sensitization Assay
Nc1nn2cc(F)cnc2c1C(=O)Nc1cncc(F)c1N1CCC(S(=O)(=O)N2CCC2)CC1 [I-N-169, 2-amino-N-(4-(4-(azetidin-1-ylsulfonyl)piperidin-1-yl)-5-fluoropyridin-3-yl)-6-fluoropyrazolo[1,5-a]pyrimidine-3-carboxamide]	+++ (Cisplatin sensitization value of <0.02 μM)
Nc1nn2cc(F)cnc2c1C(=O)Nc1cnccc1N1CCC(S(=O)(=O)N2CCOCC2)CC1 [I-N-170, 2-amino-6-fluoro-N-(4-(4-(morpholinosulfonyl)piperidin-1-yl)pyridin-3-yl)pyrazolo[1,5-a]pyrimidine-3-carboxamide]	+++ (Cisplatin sensitization value of <0.02 μM)
CN1CCN(CC2CCN(c3c(F)cncc3NC(=O)c3c(N)nn4cc(F)cnc34)CC2)CC1=O [I-N-171, 2-amino-6-fluoro-N-(5-fluoro-4-(4-((4-methyl-3-oxopiperazin-1-yl)methyl)piperidin-1-yl)pyridin-3-yl)pyrazolo[1,5-a]pyrimidine-3-carboxamide]	+++ (Cisplatin sensitization value of <0.02 μM)
Nc1nn2cc(F)cnc2c1C(=O)Nc1cncc(F)c1N1CCN(C(=O)C2CNCCO2)CC1 (centres unmarked) [I-N-172, 2-amino-6-fluoro-N-(5-fluoro-4-(4-(morpholine-2-carbonyl)piperazin-1-yl)pyridin-3-yl)pyrazolo[1,5-a]pyrimidine-3-carboxamide]	+++ (Cisplatin sensitization value of <0.02 μM)
CN1CCCCC1C(=O)N1CCN(c2c(F)cncc2NC(=O)c2c(N)nn3cc(F)cnc23)CC1 (centres unmarked) [I-N-173, 2-amino-6-fluoro-N-(5-fluoro-4-(4-(1-methylpiperidine-2-carbonyl)piperazin-1-yl)pyridin-3-yl)pyrazolo[1,5-a]pyrimidine-3-carboxamide]	+++ (Cisplatin sensitization value of <0.02 μM)
CN1CCOC(C(=O)N2CCN(c3c(F)cncc3NC(=O)c3c(N)nn4cc(F)cnc34)CC2)C1 (centres unmarked) [I-N-174, 2-amino-6-fluoro-N-(5-fluoro-4-(4-(4-methylmorpholine-2-carbonyl)piperazin-1-yl)pyridin-3-yl)pyrazolo[1,5-a]pyrimidine-3-carboxamide]	+++ (Cisplatin sensitization value of <0.02 μM)
CN1CCC(S(=O)(=O)N2CCN(c3c(F)cncc3NC(=O)c3c(N)nn4cc(F)cnc34)CC2)CC1 [I-N-175, 2-amino-6-fluoro-N-(5-fluoro-4-(4-((1-methylpiperidin-4-yl)sulfonyl)piperazin-1-yl)pyridin-3-yl)pyrazolo[1,5-a]pyrimidine-3-carboxamide]	+++ (Cisplatin sensitization value of <0.02 μM)
Nc1nn2cc(F)cnc2c1C(=O)Nc1cnccc1N1CCN(S(=O)(=O)C2CC2)CC1 [I-N-176, 2-amino-N-(4-(4-(cyclopropylsulfonyl)piperazin-1-yl)pyridin-3-yl)-6-fluoropyrazolo[1,5-a]pyrimidine-3-carboxamide]	+++ (Cisplatin sensitization value of <0.02 μM)
Nc1nn2cc(F)cnc2c1C(=O)Nc1cnccc1N1CCN(S(=O)(=O)C2CCOCC2)CC1 [I-N-177, 2-amino-6-fluoro-N-(4-(4-((tetrahydro-2H-pyran-4-yl)sulfonyl)piperazin-1-yl)pyridin-3-yl)pyrazolo[1,5-a]pyrimidine-3-carboxamide]	+++ (Cisplatin sensitization value of <0.02 μM)
CS(=O)(=O)N1CCN(c2ccncc2NC(=O)c2c(N)nn3cc(F)cnc23)CC1 [I-N-178, 2-amino-6-fluoro-N-(4-(4-(methylsulfonyl)piperazin-1-yl)pyridin-3-yl)pyrazolo[1,5-a]pyrimidine-3-carboxamide]	+++ (Cisplatin sensitization value of <0.02 μM)
Nc1nn2cc(F)cnc2c1C(=O)Nc1cnccc1N1CCN(S(=O)(=O)C2CCOC2)CC1 (centres unmarked) [I-N-179, 2-amino-6-fluoro-N-(4-(4-((tetrahydrofuran-3-yl)sulfonyl)piperazin-1-yl)pyridin-3-yl)pyrazolo[1,5-a]pyrimidine-3-carboxamide]	+++ (Cisplatin sensitization value of <0.02 μM)
CN1CCC[C@@H]1C(=O)N1CCN(c2c(F)cncc2NC(=O)c2c(N)nn3cc(F)cnc23)CC1 [I-N-181, (R)-2-amino-6-fluoro-N-(5-fluoro-4-(4-(1-methylpyrrolidine-2-carbonyl)piperazin-1-yl)pyridin-3-yl)pyrazolo[1,5-a]pyrimidine-3-carboxamide]	+++ (Cisplatin sensitization value of <0.02 μM)
Nc1nn2cc(F)cnc2c1C(=O)Nc1cncc(F)c1N1CCN2C(=O)CC[C@@H]2C1 [I-N-182, (R)-2-amino-6-fluoro-N-(5-fluoro-4-(6-oxohexahydropyrrolo[1,2-a]pyrazin-2(1H)-yl)pyridin-3-yl)pyrazolo[1,5-a]pyrimidine-3-carboxamide]	++ (Cisplatin sensitization value>0.02 μM but <0.2 μM)
CN1CCOC2(CCN(c3ccncc3NC(=O)c3c(N)nn4cc(F)cnc34)CC2)C1 [I-N-183, 2-amino-6-fluoro-N-(4-(4-methyl-1-oxa-4,9-diazaspiro[5.5]undecan-9-yl)pyridin-3-yl)pyrazolo[1,5-a]pyrimidine-3-carboxamide]	+++ (Cisplatin sensitization value of <0.02 μM)
Nc1nn2cc(F)cnc2c1C(=O)Nc1cncc(F)c1N1CCC(c2nccs2)CC1 [I-N-184, 2-amino-6-fluoro-N-(5-fluoro-4-(4-(thiazol-2-yl)piperidin-1-yl)pyridin-3-yl)pyrazolo[1,5-a]pyrimidine-3-carboxamide]	++ (Cisplatin sensitization value>0.02 μM but <0.2 μM)
CCN1CCCC1C(=O)N1CCN(c2c(F)cncc2NC(=O)c2c(N)nn3cc(F)cnc23)CC1 (centres unmarked) [I-N-185, 2-amino-N-(4-(4-(1-ethylpyrrolidine-2-carbonyl)piperazin-1-yl)-5-fluoropyridin-3-yl)-6-fluoropyrazolo[1,5-a]pyrimidine-3-carboxamide]	++ (Cisplatin sensitization value>0.02 μM but <0.2 μM)
Nc1nn2cc(F)cnc2c1C(=O)Nc1cncc(F)c1N1CCN2C(=O)CC[C@@H]2C1 [I-N-186, (R)-2-amino-6-fluoro-N-(5-fluoro-4-(6-oxohexahydropyrrolo[1,2-a]pyrazin-2(1H)-yl)pyridin-3-yl)pyrazolo[1,5-a]pyrimidine-3-carboxamide]	+++ (Cisplatin sensitization value of <0.02 μM)
Nc1nn2cc(F)cnc2c1C(=O)Nc1cncc(F)c1N1CCN(C(=O)CN2CCCC2)CC1 [I-N-187, 2-amino-6-fluoro-N-(5-fluoro-4-(4-(2-(pyrrolidin-1-yl)acetyl)piperazin-1-yl)pyridin-3-yl)pyrazolo[1,5-a]pyrimidine-3-carboxamide]	+++ (Cisplatin sensitization value of <0.02 μM)
CN1CCC(S(=O)(=O)N2CCN(c3ccncc3NC(=O)c3c(N)nn4cc(F)cnc34)CC2)CC1 [I-N-188, 2-amino-6-fluoro-N-(4-(4-((1-methylpiperidin-4-yl)sulfonyl)piperazin-1-yl)pyridin-3-yl)pyrazolo[1,5-a]pyrimidine-3-carboxamide]	+++ (Cisplatin sensitization value of <0.02 μM)
Nc1nn2cc(F)cnc2c1C(=O)Nc1cncc(F)c1N1CCC(N2CCOCC2)CC1 [I-N-189, 2-amino-6-fluoro-N-(5-fluoro-4-(4-morpholinopiperidin-1-yl)pyridin-3-yl)pyrazolo[1,5-a]pyrimidine-3-carboxamide]	+++ (Cisplatin sensitization value of <0.02 μM)
